In PubChem BioAssay (NCI):
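Results reflect a 48-hour exposure of cells in 96-well plates to compound at five concentrations. GI50 = concentration required for 50% inhibition of growth. TGI is the concentration that stops growth completely.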 Square brackets hold non-standard residues; d marks the D form. Peptide text beside a SMILES is read from it. * marks the point of attachment. ξ: configuration not given here. Boc = CC(C)(C)OC(=O)*; ξV = CC(C)C(N)C(=O)O; OBn = c1ccc(CO*)cc1

Tests used:
Assay in all cases: NCI-60 cell line screen, 48 h
HL-60(TB) leukemia = tested on: HL-60(TB) leukemia
K-562 leukemia = tested on: K-562 leukemia
RXF 393 renal = tested on: RXF 393 renal
ACHN renal = tested on: ACHN renal
UO-31 renal = tested on: UO-31 renal
SK-MEL-28 melanoma = tested on: SK-MEL-28 melanoma
HCC-2998 colon = tested on: HCC-2998 colon
OVCAR-3 ovarian = tested on: OVCAR-3 ovarian
HCT-116 colon = tested on: HCT-116 colon
IGROV1 ovarian = tested on: IGROV1 ovarian
SN12C renal = tested on: SN12C renal
TK-10 renal = tested on: TK-10 renal
MOLT-4 leukemia = tested on: MOLT-4 leukemia
T-47D breast = tested on: T-47D breast
EKVX NSCLC = tested on: EKVX NSCLC
MDA-MB-231 breast = tested on: MDA-MB-231 breast
SF-295 CNS = tested on: SF-295 CNS
NCI-H522 lung = tested on: NCI-H522 lung
NCI-H23 lung = tested on: NCI-H23 lung
A549 NSCLC = tested on: A549 NSCLC
NCI/ADR-RES ovarian = tested on: NCI/ADR-RES ovarian
LOX IMVI melanoma = tested on: LOX IMVI melanoma
HCT-15 colon = tested on: HCT-15 colon
KM12 colon = tested on: KM12 colon
DU-145 prostate = tested on: DU-145 prostate
SNB-75 CNS = tested on: SNB-75 CNS
SNB-19 CNS = tested on: SNB-19 CNS
HOP-92 NSCLC = tested on: HOP-92 NSCLC
MDA-MB-435 = tested on: MDA-MB-435
A498 renal = tested on: A498 renal
U251 CNS = tested on: U251 CNS
786-0 renal = tested on: 786-0 renal
SW-620 colon = tested on: SW-620 colon
UACC-257 melanoma = tested on: UACC-257 melanoma
SK-MEL-5 melanoma = tested on: SK-MEL-5 melanoma
SF-268 CNS = tested on: SF-268 CNS
RPMI-8226 leukemia = tested on: RPMI-8226 leukemia
SF-539 CNS = tested on: SF-539 CNS
MALME-3M melanoma = tested on: MALME-3M melanoma
OVCAR-5 ovarian = tested on: OVCAR-5 ovarian
SK-OV-3 ovarian = tested on: SK-OV-3 ovarian
MCF7 breast = tested on: MCF7 breast
HT29 colon = tested on: HT29 colon
SK-MEL-2 melanoma = tested on: SK-MEL-2 melanoma
HOP-62 NSCLC = tested on: HOP-62 NSCLC
CAKI-1 renal = tested on: CAKI-1 renal
OVCAR-4 ovarian = tested on: OVCAR-4 ovarian
UACC-62 melanoma = tested on: UACC-62 melanoma
NCI-H460 lung = tested on: NCI-H460 lung
PC-3 prostate = tested on: PC-3 prostate
BT-549 breast = tested on: BT-549 breast
NCI-H226 lung = tested on: NCI-H226 lung
M14 melanoma = tested on: M14 melanoma
OVCAR-8 ovarian = tested on: OVCAR-8 ovarian
CCRF-CEM leukemia = tested on: CCRF-CEM leukemia
COLO 205 colon = tested on: COLO 205 colon
HS 578T breast = tested on: HS 578T breast

Molecule CC(C)C(NC(=O)CNC(=O)OC(C)(C)C)C(=O)OCc1ccccc1 (stereo not drawn) (Boc-Gly-[ξV]-OBn) has a GI50 (HL-60(TB) leukemia) of 86.5 µg/mL and a GI50 (K-562 leukemia) of 30.4 µg/mL.

In the case of O=C1CCCCN1c1ccccc1C#C/C=C\C#Cc1ccccc1C(F)(F)F, the GI50 (RXF 393 renal) is reported as 526 nM, the TGI (RXF 393 renal) is reported as 2730 nM and the GI50 (ACHN renal) is reported as 2670 nM. For the same molecule, the TGI (ACHN renal) was 14700 nM, the GI50 (UO-31 renal) was 2000 nM and the TGI (UO-31 renal) was 13600 nM. It also gave a GI50 (SK-MEL-28 melanoma) of 1090 nM, a TGI (SK-MEL-28 melanoma) of 3360 nM and a GI50 (HCC-2998 colon) of 951 nM. For the same molecule, the TGI (HCC-2998 colon) was 2500 nM, the GI50 (OVCAR-3 ovarian) was 879 nM and the TGI (OVCAR-3 ovarian) was 2400 nM. It also gave a GI50 (HCT-116 colon) of 1010 nM, a TGI (HCT-116 colon) of 2590 nM and a GI50 (IGROV1 ovarian) of 1120 nM. The TGI (IGROV1 ovarian) was 3630 nM, the GI50 (SN12C renal) was 1590 nM and the TGI (SN12C renal) was 3670 nM. It also gave a GI50 (TK-10 renal) of 3350 nM, a TGI (TK-10 renal) of 30800 nM and a GI50 (MOLT-4 leukemia) of 1590 nM. The TGI (MOLT-4 leukemia) was 6960 nM, the GI50 (T-47D breast) was > 50000 nM and the TGI (T-47D breast) was > 50000 nM. The GI50 (EKVX NSCLC) was 4080 nM, the TGI (EKVX NSCLC) was > 50000 nM and the GI50 (MDA-MB-231 breast) was 1160 nM. It also gave a TGI (MDA-MB-231 breast) of 2710 nM, a GI50 (SF-295 CNS) of 1110 nM and a TGI (SF-295 CNS) of 3160 nM. For the same molecule, the GI50 (NCI-H522 lung) was 1190 nM, the TGI (NCI-H522 lung) was 3100 nM and the GI50 (NCI-H23 lung) was 1260 nM. For the same molecule, the TGI (NCI-H23 lung) was 4000 nM, the GI50 (A549 NSCLC) was 1570 nM and the TGI (A549 NSCLC) was 5160 nM. For the same molecule, the GI50 (NCI/ADR-RES ovarian) was 946 nM, the TGI (NCI/ADR-RES ovarian) was 2480 nM and the GI50 (LOX IMVI melanoma) was 1840 nM. The TGI (LOX IMVI melanoma) was 8870 nM, the GI50 (HCT-15 colon) was 1530 nM and the TGI (HCT-15 colon) was 6050 nM. It also gave a GI50 (KM12 colon) of 1800 nM, a TGI (KM12 colon) of 11400 nM and a GI50 (DU-145 prostate) of 1680 nM. The TGI (DU-145 prostate) was 8500 nM, the GI50 (SNB-75 CNS) was 1610 nM and the TGI (SNB-75 CNS) was 11400 nM. The GI50 (SNB-19 CNS) was > 50000 nM, the TGI (SNB-19 CNS) was > 50000 nM and the GI50 (HOP-92 NSCLC) was 10700 nM. For the same molecule, the TGI (HOP-92 NSCLC) was 43100 nM, the GI50 (MDA-MB-435) was 603 nM and the TGI (MDA-MB-435) was 1800 nM. For the same molecule, the GI50 (A498 renal) was 2250 nM, the TGI (A498 renal) was 28400 nM and the GI50 (U251 CNS) was 1520 nM. It also gave a TGI (U251 CNS) of 5260 nM, a GI50 (786-0 renal) of 1610 nM and a TGI (786-0 renal) of 7260 nM. For the same molecule, the GI50 (SW-620 colon) was 2040 nM, the TGI (SW-620 colon) was 46000 nM and the GI50 (HL-60(TB) leukemia) was 1270 nM. For the same molecule, the TGI (HL-60(TB) leukemia) was 3290 nM, the GI50 (UACC-257 melanoma) was 2720 nM and the TGI (UACC-257 melanoma) was 18300 nM. It also gave a GI50 (SK-MEL-5 melanoma) of 2750 nM, a TGI (SK-MEL-5 melanoma) of 12700 nM and a GI50 (SF-268 CNS) of 3810 nM. For the same molecule, the TGI (SF-268 CNS) was > 50000 nM, the GI50 (RPMI-8226 leukemia) was 1900 nM and the TGI (RPMI-8226 leukemia) was 6710 nM. It also gave a GI50 (SF-539 CNS) of 1440 nM, a TGI (SF-539 CNS) of 4430 nM and a GI50 (MALME-3M melanoma) of 2290 nM. For the same molecule, the TGI (MALME-3M melanoma) was 39200 nM, the GI50 (OVCAR-5 ovarian) was 3350 nM and the TGI (OVCAR-5 ovarian) was > 50000 nM. For the same molecule, the GI50 (SK-OV-3 ovarian) was > 50000 nM, the TGI (SK-OV-3 ovarian) was > 50000 nM and the GI50 (MCF7 breast) was 2500 nM. For the same molecule, the TGI (MCF7 breast) was > 50000 nM, the GI50 (K-562 leukemia) was 1460 nM and the TGI (K-562 leukemia) was 8650 nM. It also gave a GI50 (HT29 colon) of 970 nM, a TGI (HT29 colon) of 2630 nM and a GI50 (SK-MEL-2 melanoma) of 7260 nM. For the same molecule, the TGI (SK-MEL-2 melanoma) was > 50000 nM, the GI50 (HOP-62 NSCLC) was 899 nM and the TGI (HOP-62 NSCLC) was 2940 nM. For the same molecule, the GI50 (CAKI-1 renal) was 1680 nM, the TGI (CAKI-1 renal) was 9830 nM and the GI50 (OVCAR-4 ovarian) was 3600 nM. The TGI (OVCAR-4 ovarian) was 19100 nM, the GI50 (UACC-62 melanoma) was 1440 nM and the TGI (UACC-62 melanoma) was 4860 nM. The GI50 (NCI-H460 lung) was 2160 nM, the TGI (NCI-H460 lung) was > 50000 nM and the GI50 (PC-3 prostate) was 2320 nM. For the same molecule, the TGI (PC-3 prostate) was > 50000 nM, the GI50 (BT-549 breast) was 2590 nM and the TGI (BT-549 breast) was 14500 nM. The GI50 (NCI-H226 lung) was 1280 nM, the TGI (NCI-H226 lung) was 3700 nM and the GI50 (M14 melanoma) was 909 nM. It also gave a TGI (M14 melanoma) of 2290 nM, a GI50 (OVCAR-8 ovarian) of 1490 nM and a TGI (OVCAR-8 ovarian) of 5640 nM. For the same molecule, the GI50 (CCRF-CEM leukemia) was 1560 nM, the TGI (CCRF-CEM leukemia) was 3960 nM and the GI50 (COLO 205 colon) was 11500 nM. The TGI (COLO 205 colon) was > 50000 nM, the GI50 (HS 578T breast) was 3750 nM and the TGI (HS 578T breast) was > 50000 nM.
